Experimental data: ChEMBL document CHEMBL6114962, “Nucleoside antiviral agents with atypical structures and new targets” (Bioorg Med Chem Lett, 2025)
In brackets after ≈: the same amount, converted by molar mass.

Experiments:
[1] = Cytotoxicity against human HEL 299 cells; format: toxicity, cell-based
Human betaherpesvirus 5 = assay: Antiviral activity against HCMV; format: functional, organism-based
HEL = assay: Cytotoxicity against human HEL cells assessed as reduction in cell viability incubated for 24 hrs by MTT assay; format: functional
Human alphaherpesvirus 3 [2] = assay: Antiviral activity against Varicella zoster virus infected in human HEL cells assessed as reduction in plaque formation; format: functional, organism-based; settings: Human alphaherpesvirus 3, HEL
[3] = Cytotoxicity against African green monkey Vero E6 cells assessed as reduction in cell viability by Cell titer-Glo luminescent assay; format: toxicity, cell-based; settings: chlorocebus sabaeus
[4] = target: Histone-lysine N-methyltransferase SETD2 (Homo sapiens, UniProt Q9BYW2); assay: Inhibition of human recombinant […] N-terminal His-tagged SETD2 (1347to1711 residues) extracted from Escherichia coli BL21 (DE3) using biotin-tagged Histone H3 and 3H-SAM as substrate incubated for 1 hr by TopCount scintillation proximity assay
Chain of Histone-lysine N-methyltransferase SETD2 (Q9BYW2 whole entry, the tested form may be a part): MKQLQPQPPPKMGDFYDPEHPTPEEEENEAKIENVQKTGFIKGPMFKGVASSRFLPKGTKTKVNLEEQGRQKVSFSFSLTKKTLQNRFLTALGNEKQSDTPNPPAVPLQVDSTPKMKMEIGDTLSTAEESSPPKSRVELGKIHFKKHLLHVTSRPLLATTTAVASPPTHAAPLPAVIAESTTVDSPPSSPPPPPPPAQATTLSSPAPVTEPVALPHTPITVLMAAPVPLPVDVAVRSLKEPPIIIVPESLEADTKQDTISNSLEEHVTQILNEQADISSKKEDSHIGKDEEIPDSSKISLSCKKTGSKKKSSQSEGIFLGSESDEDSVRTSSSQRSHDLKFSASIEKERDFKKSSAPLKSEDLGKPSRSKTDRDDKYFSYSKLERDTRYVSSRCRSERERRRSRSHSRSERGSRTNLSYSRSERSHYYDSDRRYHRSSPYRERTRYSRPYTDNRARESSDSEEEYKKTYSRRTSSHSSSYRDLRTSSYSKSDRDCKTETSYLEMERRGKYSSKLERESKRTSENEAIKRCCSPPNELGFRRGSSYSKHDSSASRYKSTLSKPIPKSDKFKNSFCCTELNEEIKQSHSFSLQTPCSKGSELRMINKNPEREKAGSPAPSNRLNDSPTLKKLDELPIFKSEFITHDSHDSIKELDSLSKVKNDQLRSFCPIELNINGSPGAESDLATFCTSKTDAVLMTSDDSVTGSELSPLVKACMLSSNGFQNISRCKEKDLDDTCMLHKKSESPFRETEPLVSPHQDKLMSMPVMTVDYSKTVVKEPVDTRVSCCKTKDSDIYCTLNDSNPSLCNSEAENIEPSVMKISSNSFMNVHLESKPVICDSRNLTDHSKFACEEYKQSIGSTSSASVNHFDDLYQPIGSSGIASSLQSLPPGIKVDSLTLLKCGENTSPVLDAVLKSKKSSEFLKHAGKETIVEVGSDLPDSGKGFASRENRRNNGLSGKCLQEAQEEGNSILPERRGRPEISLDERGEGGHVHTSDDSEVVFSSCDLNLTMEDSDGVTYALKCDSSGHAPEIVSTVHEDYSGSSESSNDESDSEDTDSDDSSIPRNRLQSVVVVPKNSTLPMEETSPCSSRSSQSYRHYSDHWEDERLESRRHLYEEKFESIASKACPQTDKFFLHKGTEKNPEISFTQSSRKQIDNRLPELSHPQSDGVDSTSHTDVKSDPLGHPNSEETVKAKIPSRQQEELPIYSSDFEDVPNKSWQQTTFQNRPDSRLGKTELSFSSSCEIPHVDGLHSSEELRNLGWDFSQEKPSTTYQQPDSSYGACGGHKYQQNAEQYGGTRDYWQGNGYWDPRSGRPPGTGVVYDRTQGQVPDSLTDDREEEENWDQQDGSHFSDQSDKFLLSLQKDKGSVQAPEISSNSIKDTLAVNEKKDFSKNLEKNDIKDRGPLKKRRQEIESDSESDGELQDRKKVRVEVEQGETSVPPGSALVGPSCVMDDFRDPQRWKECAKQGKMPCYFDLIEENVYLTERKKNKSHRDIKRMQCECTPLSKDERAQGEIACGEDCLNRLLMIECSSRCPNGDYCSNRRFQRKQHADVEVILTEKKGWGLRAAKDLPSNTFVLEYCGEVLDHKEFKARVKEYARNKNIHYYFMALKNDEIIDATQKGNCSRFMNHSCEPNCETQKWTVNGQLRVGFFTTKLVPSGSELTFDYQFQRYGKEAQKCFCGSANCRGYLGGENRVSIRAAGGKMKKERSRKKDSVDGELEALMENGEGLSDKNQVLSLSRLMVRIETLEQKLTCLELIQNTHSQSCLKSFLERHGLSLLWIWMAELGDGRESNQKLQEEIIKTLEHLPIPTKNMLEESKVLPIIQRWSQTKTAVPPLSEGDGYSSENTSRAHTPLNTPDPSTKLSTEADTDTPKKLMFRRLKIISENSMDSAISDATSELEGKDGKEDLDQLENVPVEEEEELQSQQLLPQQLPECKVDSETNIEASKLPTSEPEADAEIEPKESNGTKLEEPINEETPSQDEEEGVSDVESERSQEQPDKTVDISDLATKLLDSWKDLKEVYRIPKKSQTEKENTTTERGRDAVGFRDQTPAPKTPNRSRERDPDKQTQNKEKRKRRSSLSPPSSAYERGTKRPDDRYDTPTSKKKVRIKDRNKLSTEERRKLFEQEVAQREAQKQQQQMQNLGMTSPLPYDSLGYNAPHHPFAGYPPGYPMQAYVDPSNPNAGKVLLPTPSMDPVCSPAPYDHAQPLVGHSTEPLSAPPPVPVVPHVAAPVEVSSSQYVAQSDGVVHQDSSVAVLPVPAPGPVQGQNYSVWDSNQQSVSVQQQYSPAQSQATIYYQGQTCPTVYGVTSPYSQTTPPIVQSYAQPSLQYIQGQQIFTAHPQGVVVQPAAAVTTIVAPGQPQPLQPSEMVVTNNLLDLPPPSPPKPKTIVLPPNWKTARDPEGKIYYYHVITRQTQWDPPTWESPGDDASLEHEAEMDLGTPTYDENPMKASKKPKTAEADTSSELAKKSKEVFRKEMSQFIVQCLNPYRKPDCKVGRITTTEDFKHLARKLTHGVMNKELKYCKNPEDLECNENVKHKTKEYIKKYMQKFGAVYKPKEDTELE

Vaccinia virus = assay: Antiviral activity against Vaccinia virus; format: functional, organism-based; settings: Orthopoxvirus vaccinia
[5] = Cytotoxicity against human HFF cells; format: toxicity, cell-based
Human coronavirus OC43 = assay: Antiviral activity against Human coronavirus OC43 infected in Vero cells assessed as reduction in viral replication pre-incubated with virus for 1 hr followed by washout and compound treatment and measured after 3 days by qRT-PCR analysis; format: functional, organism-based; settings: Betacoronavirus 1, Vero
[6] = Cytotoxicity against African green monkey Vero cells; format: toxicity, cell-based; settings: chlorocebus sabaeus
Influenza A virus [7] = assay: Antiviral activity against influenza A virus H1N1 infected in dog MDCK cells assessed as reduction in virus induced cytopathic effect by CPE assay; format: functional, organism-based
Influenza A virus [8] = assay: Anti-influenza activity against influenza A virus H3N2 (A/California/2014) infected in dog MDCK cells incubated for 72 hrs by MTT assay; format: functional, organism-based
[9] = Cytotoxicity against dog MDCK cells assessed as reduction in cell viability incubated for 48 hrs by CCK-8 assay; format: toxicity, cell-based, Canis lupus familiaris
SARS-CoV-2 = assay: Antiviral activity against SARS CoV-2 Omicron B1.1.529 infected in Vero E6 cells at 0.02 MOI assessed as reduction in viral RNA growth incubated for 24 hrs by qRT-PCR analysis; format: functional, organism-based; settings: Severe acute respiratory syndrome coronavirus 2, Omicron B1.1.529, Vero C1008, 24 h
SARS-CoV [10] = assay: Antiviral activity against SARS-CoV Frankfurt-1 infected in Vero E6 cells assessed as reduction in viral replication; format: functional, organism-based; settings: Severe acute respiratory syndrome-related coronavirus, Frankfurt-1, Vero C1008
SARS-CoV [11] = assay: Antiviral activity against SARS-CoV HKU39849 infected in Vero E6 cells assessed as reduction in viral replication; format: functional, organism-based; settings: Severe acute respiratory syndrome-related coronavirus, HKU39849, Vero C1008
[12] = Cytotoxicity against African green monkey Vero E6 cells assessed as reduction in cell viability measured after 72 hrs by WST-1 assay; format: toxicity, cell-based, Vero C1008; settings: chlorocebus sabaeus
Human alphaherpesvirus 1 = assay: Antiviral activity against HSV-1; format: functional, organism-based
Human alphaherpesvirus 2 = assay: Antiviral activity against HSV-2; format: functional, organism-based
Human alphaherpesvirus 3 [13] = assay: Antiviral activity against Varicella zoster virus infected in human HEL cells assessed as inhibition of plaque formation measured for 3 days; format: functional, organism-based; settings: Human alphaherpesvirus 3, HEL, 72 h
HMEC-1 = assay: Cytotoxicity against human HMEC-1 cells assessed as reduction in cell growth incubated for 24 hrs; format: functional
[14] = target: Replicase polyprotein 1ab (Severe acute respiratory syndrome coronavirus 2, UniProt P0DTD1); assay: Inhibition of C-terminal SARS-CoV-2 nsp14 N7-methyltransferase activity incubated for 30 mins in presence of SAM by Liquid scintillation analysis
Influenza A virus [15] = assay: Antiviral activity against influenza A virus A/WSN/33 (H1N1) infected in dog MDCK cells assessed as reduction in virus induced cytopathic effect measured after 48 hrs by crystal violet staining based assay; format: functional, organism-based
Influenza A virus [16] = assay: Antiviral activity against Influenza virus H3N2 (A/Hong Kong/8/68) infected in dog MDCK cells assessed as reduction in virus induced cytopathic effect measured after 48 hrs by crystal violet staining based assay; format: functional, organism-based
[17] = Cytotoxicity against dog MDCK cells assessed as reduction in cell viability incubated for 72 hrs by CCK-8 assay; format: toxicity, cell-based, Canis lupus familiaris

SMILES: Nc1nc2c(ncn2C[Se]C(CO)CO)c(=O)[nH]1
- CC50 [1]: > 100 µM
- EC50 (Human betaherpesvirus 5): 53.1 µM

SMILES: COc1ccc(C(OC[C@H]2O[C@@H](n3cc4c(nc3=O)Nc3c(OCCN)cccc3O4)C[C@@H]2O)(c2ccccc2)c2ccc(OC)cc2)cc1
- CC50 (HEL): 14.4 µM
- EC50 (Human alphaherpesvirus 3 [2]): 1.7 µM

SMILES: COc1ccc(C(OC[C@H]2O[C@@H](n3cc4c(nc3=O)Nc3ccccc3O4)C[C@@H]2O)(c2ccccc2)c2ccc(OC)cc2)cc1
- CC50 (HEL): 12.2 µM
- EC50 (Human alphaherpesvirus 3 [2]): 1.5 µM

SMILES: CC(C)Nc1nc2cc(Cl)c(Cl)cc2n1[C@H]1O[C@@H](CO)[C@H](O)[C@@H]1O [MARIBAVIR]
- CC50 [3]: > 100 µM

SMILES: Nc1ncnc2c1ncn2[C@@H]1O[C@H](C[C@H](CC[C@H](N)C(=O)O)NCc2ccccc2)[C@@H](O)[C@H]1O
- IC50 [4]: 0.48 µM

SMILES: CCCCCOCCCCCCCCCc1cc2cn([C@@H]3CC[C@H](CO)O3)c(=O)nc2o1
- EC50 (Vaccinia virus): 0.19 µM
- CC50 [5]: > 100 µM

SMILES: Cc1nc(N)c2c(C(N)=O)cc([C@@H]3O[C@H](CO)[C@@H](O)[C@H]3O)n2n1
- EC50 (Human coronavirus OC43): 0.65 µM
- CC50 [6]: 45 µM

SMILES: NC(=O)c1nc(F)cnc1O [FAVIPIRAVIR]
- EC50 (Influenza A virus [7]): 0.03 µg/mL (≈ 0.191 µM)
- EC50 (Influenza A virus [8]): 0.07 µg/mL (≈ 0.446 µM)
- CC50 at 48 h [9]: > 100 µM

SMILES: Nc1ncnc2c1ncn2[C@@H]1O[C@H](CO)[C@@H](O)[C@@H]1O [VIDARABINE]
- CC50 [3]: > 100 µM
- EC50 (SARS-CoV-2): 0.251 µM

SMILES: O[C@@H]1[C@H](O)[C@H](O)CO[C@H]1Cn1c(Br)nc2cc(Cl)c(Cl)cc21
- EC50 (Human betaherpesvirus 5): 1.4 µM

SMILES: NC(=O)c1ncn([C@@H]2O[C@H](CO)[C@@H](O)[C@H]2O)c1O [MIZORIBINE]
- EC50 (SARS-CoV [10]): 3.5 µg/mL (≈ 13.5 µM)
- EC50 (SARS-CoV [11]): 16 µg/mL (≈ 61.7 µM)
- CC50 at 72 h [12]: > 200 µg/mL

SMILES: COc1ccc(C(OC[C@H]2O[C@@H](n3cc4c(nc3=O)Nc3ccccc3O4)[C@H](O)[C@@H]2O)(c2ccccc2)c2ccc(OC)cc2)cc1
- CC50 (HEL): 9.7 µM
- EC50 (Human alphaherpesvirus 3 [2]): 2.7 µM

SMILES: CC(C)=CCNc1ncnc2c1ncn2[C@@H]1O[C@H](CO)[C@@H](O)[C@H]1O [RIBOPRINE]
- CC50 [3]: > 100 µM

SMILES: Nc1ncnc2c1ncn2[C@@H]1O[C@H](C[C@@H](N)CC[C@H](N)C(=O)O)[C@@H](O)[C@H]1O [SINEFUNGIN]
- IC50 [4]: 28.4 µM

SMILES: Nc1nc2c(ncn2C[Se]CCO)c(=O)[nH]1
- CC50 [1]: > 100 µM
- EC50 (Human alphaherpesvirus 1): 1.47 µM
- EC50 (Human alphaherpesvirus 2): 6.34 µM

SMILES: C#CCn1c(=O)n(C(=O)c2ccccc2)c(=O)c2ccccc21
- EC50 (Human alphaherpesvirus 3 [13]): 5.4 µM
- CC50 (HMEC-1): 11.2 µM

SMILES: Nc1ncnc2c1c(C#Cc1cnc3ccccc3c1)cn2[C@@H]1O[C@H](CSCC[C@H](N)C(=O)O)[C@@H](O)[C@H]1O
- IC50 [14]: 0.003 µM

SMILES: O=c1c2ccccc2n(Cc2cn(CCCOCc3ccccc3)nn2)c(=O)n1Cc1ccccc1
- EC50 (Human alphaherpesvirus 3 [13]): > 20 µM

SMILES: Cc1ncnc2c1c(/C=C/c1ccccn1)cn2[C@@H]1O[C@H](CO)[C@@H](O)[C@@]1(C)F
- EC50 (Influenza A virus [15]): 5.88 µM
- EC50 (Influenza A virus [16]): 6.95 µM
- CC50 at 72 h [17]: > 100 µM

SMILES: O=c1c2ccccc2n(Cc2cn(CCCOCc3ccccc3)nn2)c(=O)n1Cc1ccc(F)cc1
- EC50 (Human alphaherpesvirus 3 [13]): 12.3 µM

SMILES: Cc1ncnc2c1c(/C=C/c1cccs1)cn2[C@@H]1O[C@H](CO)[C@@H](O)[C@@]1(C)F
- EC50 (Influenza A virus [15]): 3.95 µM
- EC50 (Influenza A virus [16]): 3.61 µM
- CC50 at 72 h [17]: > 100 µM
